Test results: PMC5912893 (Journal of medicinal chemistry, 2018)

How the values were obtained:
purified tubulin = purified tubulin (Sus scrofa, UniProt P02550+P02554); assay: Cell-free microtubule polymerization assay; format: biochemical, porcine; details: tubulin 3.33 mg/mL, absorbance 340 nm, 37 °C, 50 min
A375, M14, and RPMI7951 = assay: Cytotoxic activity against three human malignant melanoma cell lines; details: read-out: IC50 (approximate, three melanoma cell lines)
A375 xenograft = assay: A375 melanoma xenograft model in nude mice; format: in vivo; details: for apoptosis in tumors (cleaved caspase 3 IHC): IHC staining
RPMI7951 = assay: Wound healing assay, RPMI7951 cells; format: cell-based, human; details: 18 h, untreated control 71.8%
PC-3/TxR xenograft = assay: Paclitaxel resistant PC-3/TxR prostate cancer xenograft model in nude mice; format: in vivo; details: for effect on tumor growth (in words): vs vehicle
WM164 melanoma cells = assay: Confocal immunofluorescent microscopy of microtubule networks; format: cell-based, human; details: 100 nM, 18 h
PC-3 xenograft = details: nude mice

purified tubulin, sequence (P02554 whole entry): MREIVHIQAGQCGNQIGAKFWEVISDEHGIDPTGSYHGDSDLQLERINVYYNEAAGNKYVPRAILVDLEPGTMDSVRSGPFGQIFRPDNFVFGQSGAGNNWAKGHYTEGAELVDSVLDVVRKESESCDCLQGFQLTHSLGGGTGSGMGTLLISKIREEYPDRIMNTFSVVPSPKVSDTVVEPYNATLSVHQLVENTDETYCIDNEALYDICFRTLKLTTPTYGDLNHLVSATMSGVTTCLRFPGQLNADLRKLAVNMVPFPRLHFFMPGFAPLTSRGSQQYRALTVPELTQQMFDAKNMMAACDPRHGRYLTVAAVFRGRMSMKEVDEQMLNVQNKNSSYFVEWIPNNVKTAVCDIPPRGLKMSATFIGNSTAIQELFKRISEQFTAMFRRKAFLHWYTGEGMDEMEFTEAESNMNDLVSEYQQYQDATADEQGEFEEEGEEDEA
purified tubulin, sequence (P02550 whole entry): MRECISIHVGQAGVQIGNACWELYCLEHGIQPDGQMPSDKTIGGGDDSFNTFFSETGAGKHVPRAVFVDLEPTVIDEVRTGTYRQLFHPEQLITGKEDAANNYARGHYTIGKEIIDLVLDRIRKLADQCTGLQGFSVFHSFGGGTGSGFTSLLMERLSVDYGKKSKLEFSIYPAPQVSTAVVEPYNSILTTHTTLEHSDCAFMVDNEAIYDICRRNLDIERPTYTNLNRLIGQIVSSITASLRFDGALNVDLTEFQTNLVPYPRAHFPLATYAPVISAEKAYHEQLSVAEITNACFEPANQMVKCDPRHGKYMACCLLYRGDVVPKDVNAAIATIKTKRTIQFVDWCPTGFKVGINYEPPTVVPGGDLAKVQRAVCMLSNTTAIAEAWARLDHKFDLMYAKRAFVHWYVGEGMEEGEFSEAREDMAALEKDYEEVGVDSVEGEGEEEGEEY

SMILES	effect on tubulin polymerization (purified tubulin)	IC50 (A375, M14, and RPMI7951) [nM]	microvessel density in tumors (CD31 staining) (A375 xenograft)	apoptosis in tumors (cleaved caspase 3 IHC) (A375 xenograft)	other results
COc1ccc2c(c1)CCCN2c1nc(Cl)nc2ccoc12 [6a, 2-Chloro-4-(6-methoxy-3,4-dihydroquinolin-1(2H)-yl)furo[3,2-d]pyrimidine]	effectively inhibited tubulin polymerization in a dose-dependent manner	~3	less microvessel density	increase in the number of cells undergoing apoptosis	
COc1ccc2c(c1)C(O)CCN2c1nc(Cl)nc2ncccc12 (stereo not drawn) [compound 17, 1-(2-Chloropyrido[2,3-d]pyrimidin-4-yl)-6-methoxy-1,2,3,4-tetrahydroquinolin-4-ol]		~30			
COc1cc2c(c(OC)c1OC)-c1ccc(OC)c(=O)cc1[C@@H](NC(C)=O)CC2 [colchicine]					wound closure, RPMI7951, 5 nM (RPMI7951): a significant decrease in migration was not observed
COc1ccc2c(c1)CCCN2c1nc(Cl)nc2ncccc12 [4a, 2-Chloro-4-(6-methoxy-3,4-dihydroquinolin-1(2H)-yl)pyrido-[2,3-d]pyrimidine]	effectively inhibited tubulin polymerization in a dose-dependent manner	~6	less microvessel density	increase in the number of cells undergoing apoptosis	effect on tumor growth (in words) (PC-3/TxR xenograft): significant decrease in tumor volume; effect on microtubule networks (WM164 melanoma cells): causes fragmentation of the microtubules, decreases polymeric tubulin filaments, and increases cytoplasmic soluble tubulin
CC(=O)O[C@H]1C(=O)[C@@]2(C)[C@H]([C@H](OC(=O)c3ccccc3)[C@]3(O)C[C@H](OC(=O)[C@H](O)[C@@H](NC(=O)c4ccccc4)c4ccccc4)C(C)=C1C3(C)C)[C@]1(OC(C)=O)CO[C@@H]1C[C@@H]2O [paclitaxel, reference compound]	greatest polymerization		less microvessel density	increase in the number of cells undergoing apoptosis	mouse body weight (PC-3/TxR xenograft): began to drop considerably after 2 weeks of treatment; effect on tumor growth (in words) (PC-3/TxR xenograft): no difference in tumor growth; susceptibility of nonresistant tumors to treatment (PC-3 xenograft): highly susceptible
COc1ccc(N(C)c2nc(Cl)nc3ncccc23)cc1OC [21a, 2-Chloro-N-(3,4-dimethoxyphenyl)-N-methylpyrido[2,3-d]-pyrimidin-4-amine]		45			
CC(=O)O[C@@]12CO[C@@H]1C[C@H](O)[C@@]1(C)C(=O)[C@H](O)C3=C(C)[C@@H](OC(=O)[C@H](O)[C@@H](NC(=O)OC(C)(C)C)c4ccccc4)C[C@@](O)([C@@H](OC(=O)c4ccccc4)[C@H]21)C3(C)C [docetaxel, reference compound]					effect on microtubule networks (WM164 melanoma cells): dense tubulin accretion, representative of aggressive polymerization
COc1ccc2c(c1)OCCN2c1nc(Cl)nc2ncccc12 [compound 19, 4-(2-Chloropyrido[2,3-d]pyrimidin-4-yl)-7-methoxy-3,4-dihydro-2H-benzo[b][1,4]oxazine]		298			
